Reference: article PMC4633220, “Antiaggregation Potential of Padina gymnospora against the Toxic Alzheimer’s Beta-Amyloid Peptide 25–35 and Cholinesterase Inhibitory Property of Its Bioactive Compounds” (PLoS ONE, 2015)

Columns and labels:
[1] = test system: T1, Aβ 25–35 pre-formed fibrils; test: Thioflavin T assay, Phase II: disaggregation of pre-formed mature fibrils; format: biochemical; conditions: pre-formed Aβ 25–35 fibrils with ACTPG 250 μg/ml or galantamine 50 μM
T1 construct: Aβ 25–35 peptide was purchased from GenScript USA Inc; purchased GenScript USA Inc
Procedure: According to the method of Ramesh et al the anti-aggregation and disaggregation property of P. gymnospora was evaluated in two different phases. In phase I, the inhibition of aggregate formation was assessed by using oligomers. Consequently, in Phase II the disaggregation of the pre-formed fibrils were determined. Freshly prepared Aβ 25–35 (100 μM) monomer was incubated in Tris-HCl buffer pH 7.4 at 37°C for 20 h. However, after 20 h, an increase in fluorescence intensity was observed which represents the formation of oligomers. The acetone extract of P. gymnospora (ACTPG) (250 and 500 μg/ml) was added to the oligomers and subjected to incubation at 48 h for dose fixation. […] In phase I, the freshly prepared Aβ 25–35 (100 μM) was incubated with ACTPG (250 μg/ml), and the aggregation pattern was evaluated by ThT assay with the aliquots taken from the incubation mixture at 20 h and 48 h respectively. […] After that, ACTPG (250 μg/ml) was co-incubated with the pre-formed fibrils, and the disaggregation pattern was evaluated by taking the aliquots of incubation mixture at 96 h and 9 days using Thioflavin T assay using the standard Galantamine (50μM) as a positive control. […]
Thioflavin T-induced fluorescence changes were measured to quantify amyloid fibril formation by spectrofluorimeter (Microplate Analyzer) as described by. […]

AChE from Electric eel = molecular target: T2, AChE from Electric eel (Electrophorus electricus, UniProt O42275); test: AChE inhibitory assay (modified Ellman 96-well microplate); format: biochemical
T2 construct: AChE from Electric eel (Type-VI-S, EC 3.1.1.7, Sigma); purchased Sigma Type-VI-S
Procedure: (§1) ChE inhibitory activities were measured using a modified 96-well microplate assay developed by. […] After incubation, 125 μl of 3 mM DTNB was added and the total volume was made up to 300 μl with Tris- HCl buffer (pH 8.0/7.4). Enzyme activity was initiated by the addition of 50 μl of 15 mm ATCI/BTCI. […] AChE activity was expressed as U/mg of protein (1U = μmol of thiocholine iodide formed/min/mg protein). […] Percentage of inhibition of AChE/BuChE was determined by comparison of rates of reaction of samples relative to the blank (Tris-HCl buffer) using the formula, where SA is the specific activity.
(§2) % of inhibition = [(SA of control − SA of test sample) / SA of control]*100

BuChE from horse serum = molecular target: T3, BuChE from horse serum (Equus caballus, UniProt P81908); test: biochemical
T3 construct: BuChE from horse serum (EC 3.1.1.8, MP Biomedicals); purchased MP Biomedicals; host or cells: horse serum
Procedure: as §1, §2

T3 sequence (P81908 whole entry): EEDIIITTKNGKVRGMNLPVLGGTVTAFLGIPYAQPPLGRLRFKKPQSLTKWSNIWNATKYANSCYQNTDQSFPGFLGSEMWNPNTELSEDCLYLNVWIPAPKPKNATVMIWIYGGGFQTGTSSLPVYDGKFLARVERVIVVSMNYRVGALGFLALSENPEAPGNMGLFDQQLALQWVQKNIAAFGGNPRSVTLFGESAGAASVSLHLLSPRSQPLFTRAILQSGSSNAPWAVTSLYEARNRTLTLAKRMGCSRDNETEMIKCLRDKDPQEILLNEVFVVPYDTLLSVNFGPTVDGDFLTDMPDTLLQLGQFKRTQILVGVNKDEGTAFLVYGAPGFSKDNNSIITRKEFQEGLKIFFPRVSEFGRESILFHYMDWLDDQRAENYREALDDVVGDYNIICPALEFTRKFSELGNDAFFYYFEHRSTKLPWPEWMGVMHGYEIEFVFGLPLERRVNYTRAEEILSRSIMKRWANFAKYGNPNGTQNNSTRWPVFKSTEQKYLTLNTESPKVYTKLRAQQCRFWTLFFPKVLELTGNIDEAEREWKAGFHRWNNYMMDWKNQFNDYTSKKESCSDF
T2 sequence (O42275 24-633): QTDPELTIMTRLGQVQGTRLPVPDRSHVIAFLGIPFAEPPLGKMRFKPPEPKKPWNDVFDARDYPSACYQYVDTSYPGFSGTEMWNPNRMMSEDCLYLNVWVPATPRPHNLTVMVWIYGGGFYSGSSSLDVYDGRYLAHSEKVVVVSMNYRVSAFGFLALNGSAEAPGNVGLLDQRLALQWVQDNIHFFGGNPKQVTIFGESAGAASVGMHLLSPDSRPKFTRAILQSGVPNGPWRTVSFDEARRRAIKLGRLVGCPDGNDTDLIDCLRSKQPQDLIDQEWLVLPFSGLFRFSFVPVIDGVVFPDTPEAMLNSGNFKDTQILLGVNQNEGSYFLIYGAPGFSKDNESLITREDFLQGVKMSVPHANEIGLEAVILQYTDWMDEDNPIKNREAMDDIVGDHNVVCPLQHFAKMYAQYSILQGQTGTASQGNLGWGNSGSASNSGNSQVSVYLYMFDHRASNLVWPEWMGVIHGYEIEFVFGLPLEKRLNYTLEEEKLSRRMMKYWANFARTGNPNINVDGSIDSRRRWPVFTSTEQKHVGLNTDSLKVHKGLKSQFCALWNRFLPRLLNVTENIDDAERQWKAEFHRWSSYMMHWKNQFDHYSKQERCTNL

Row | Structure (SMILES) | Thioflavin T fluorescence intensity ([1]; 96 h, Aβ alone 4.67 ± 0.28 AU) | Thioflavin T fluorescence intensity ([1]; 9 days, Aβ alone 6.06 ± 0.47 AU) | IC50 (AChE from Electric eel) | inhibition at 50 µg/mL (AChE from Electric eel; read-out: maximum AChE inhibitory activity) | IC50 (BuChE from horse serum) | inhibition at up to 50 µg/mL (BuChE from horse serum; 10–50 μg/ml tested, at 50 μg/ml, read-out: maximum BuChE inhibitory activity)
1 | COc1ccc2c3c1O[C@H]1C[C@@H](O)C=C[C@@]31CCN(C)C2 [Galantamine] | 3.62 ± 0.55 AU | 2.86 ± 0.94 AU | – | – | – | –
2 | CC(C)=CCC[C@](C)(O)[C@@H]1CC=C(C)CC1 [alpha-bisabolol, Alpha-bisabolol] | – | – | < 45 µM | 87% | < 45 µM | 66%
